# From US12655150B2 (Cedilla Therapeutics, Inc., priority 2021, dated 2026)
# Counter-ions that a name gives are not always drawn.
# Tested on: EGFR-mutant NSCLC PC-9 cells
# Experiment: Apoptosis (caspase 3/7, IncuCyte) in combination with EGFR inhibitor
# Type: cell-based
# Conditions: apoptotic index; I-41 (10 μM) alone
# Description: Apoptosis was detected by CellEvent Caspase 3/7 Green ReadyProbes Reagent (ThermoFisher), a fluorogenic indicator of activated caspase-3/7. Cell death (apoptsis) and cell growth (phase confluence) over time were captured by IncuCyte live cell imaging system (Essen Bioscience) and quantified by IncuCyte S3 software (Essen Bioscience). Apoptotic Index was calculated by dividing apoptosis signal with phase confluence.
row,SMILES,Fold Change over DMSO at 48 hrs
1,"CC(C)(C)c1ccc(-c2nc3cc(C(=O)O)ccc3n3cccc23)cc1 [I-41, 4-(4-(tert-butyl)phenyl)pyrrolo[1,2-a]quinoxaline-7-carboxylic acid]",1.1

# Same assay, conditions: apoptotic index; Osimertinib (100 nM) + I-41 (0.37 μM)
row,SMILES,Fold Change over DMSO at 48 hrs
1,"CC(C)(C)c1ccc(-c2nc3cc(C(=O)O)ccc3n3cccc23)cc1 [I-41, 4-(4-(tert-butyl)phenyl)pyrrolo[1,2-a]quinoxaline-7-carboxylic acid]",4.3

# Same assay, conditions: apoptotic index; Osimertinib (100 nM) + I-41 (1.1 μM)
row,SMILES,Fold Change over DMSO at 48 hrs
1,"CC(C)(C)c1ccc(-c2nc3cc(C(=O)O)ccc3n3cccc23)cc1 [I-41, 4-(4-(tert-butyl)phenyl)pyrrolo[1,2-a]quinoxaline-7-carboxylic acid]",4.9

# Same assay, conditions: apoptotic index; Osimertinib (100 nM) + I-41 (10 μM)
row,SMILES,Fold Change over DMSO at 48 hrs
1,"CC(C)(C)c1ccc(-c2nc3cc(C(=O)O)ccc3n3cccc23)cc1 [I-41, 4-(4-(tert-butyl)phenyl)pyrrolo[1,2-a]quinoxaline-7-carboxylic acid]",5.5

# Same assay, conditions: apoptotic index; Osimertinib (100 nM) alone
row,SMILES,Fold Change over DMSO at 48 hrs
1,"C=CC(=O)Nc1cc(Nc2nccc(-c3cn(C)c4ccccc34)n2)c(OC)cc1N(C)CCN(C)C [Osimertinib, reference compound]",2.6

# Tested on: NCI-H226
# Experiment: 72H TEAD Proliferation Assay (Cell Titer Glo 2.0)
# Type: cell-based
# Conditions: Homo sapiens, NCI-H226, 72 h, CTG 2.0, cell line not given (NCI-H226 responsive, NCI-H28 non-responsive)
# Summary of the method: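 Growth read-out is ATP luminescence (CellTiter-Glo 2.0) after 72 h compound exposure, corrected for no-CTG background and day-0 values, with GI50 from nonlinear regression. Sensitive line NCI-H226 (NF2-deficient); non-responsive NCI-H28 (NF2 wild type) distinguishes TEAD-driven from nonspecific growth inhibition.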
row,SMILES,GI50 [nM]
1,"CC(C)(C)c1ccc(-c2nc3cc(C(=O)O)ccc3n3cccc23)cc1 [I-41, 4-(4-(tert-butyl)phenyl)pyrrolo[1,2-a]quinoxaline-7-carboxylic acid]",≤ 1000
2,"CC[C@H](CO)NC(=O)c1ccc2c(OC)cc(-c3ccc(C(F)(F)F)cn3)nc2c1 [I-358, (R)—N-(1-hydroxybutan-2-yl)-4-methoxy-2-(5-(trifluoromethyl)pyridin-2-yl)quinoline-7-carboxamide]",≤ 1000
3,"O=C(O)c1ccc2c(c1)nc(-c1cnc(C(F)(F)F)cn1)c1cccn12 [I-198, 4-(5-(trifluoromethyl)pyrazin-2-yl)pyrrolo[1,2-a]quinoxaline-7-carboxylic acid]",1000 to 5000
4,"CC1(C)CC2(CCN(c3nc4cc(C(=O)O)ccc4n4cccc34)CC2)CO1 [I-34, 4-(3,3-Dimethyl-2-oxa-8-azaspiro [4.5]decan-8-yl) pyrrolo[1,2-a] quinoxaline-7-carboxylic acid]",> 10000
5,"C=CC(=O)Nc1cn2ccnc2c(-c2ccc(C(C)(C)C)cc2)n1 [I-146, N-(8-(4-(tert-Butyl)phenyl)imidazo[1,2-a]pyrazin-6-yl)acrylamide]",1000 to 5000
6,"C=CC(=O)N1CCc2c(cccc2-c2ccc(C(F)(F)F)cc2)C1 [I-136, 1-(5-(4-(Trifluoromethyl)phenyl)-3,4-dihydroisoquinolin-2(1H)-yl)prop-2-en-1-one]",≤ 1000
7,"O=C(O)c1ccc2c(c1)nc(-c1ccc(C(F)(F)F)nc1)c1cccn12 [I-51, 4-(6-(Trifluoromethyl)pyridin-3-yl)pyrrolo[1,2-a]quinoxaline-7-carboxylic acid]",1000 to 5000
8,"O=C(O)C1CCN(c2cn3ccnc3c(-c3ccc(C(F)(F)F)cc3)n2)C1 (centres unmarked) [I-234, 1-(8-(4-(Trifluoromethyl)phenyl)imidazo[1,2-a]pyrazin-6-yl)pyrrolidine-3-carboxylic acid]",5000 to 10000
9,"C=CC(=O)NCc1cn2ccnc2c(-c2ccc(OC(F)(F)F)cc2)n1 [I-173, N-((8-(4-(trifluoromethoxy)phenyl)imidazo[1,2-a]pyrazin-6-yl)methyl)acrylamide]",≤ 1000
10,"Cc1cc(-c2ccc(C(F)(F)F)cc2)nc2cc(C(=O)O)ccc12 [I-89, 4-Methyl-2-(4-(trifluoromethyl)phenyl)quinoline-7-carboxylic acid]",≤ 1000
11,"C=CS(=O)(=O)NCc1cn2ccnc2c(-c2ccc(C(C)(C)C)cc2)n1 [I-141, N-((8-(4-(tert-Butyl)phenyl)imidazo[1,2-a]pyrazin-6-yl)methyl)ethenesulfonamide]",1000 to 5000
12,"Cc1cc(-c2ccc(C(F)(F)F)cc2)nc2cc(C(=O)N[C@@H](C)c3cccc(C(=O)O)c3)ccc12 [I-267, (S)-3-(1-(4-methyl-2-(4-(trifluoromethyl)phenyl)quinoline-7-carboxamido)ethyl)benzoic acid]",≤ 1000
13,"COc1cc(-c2ccc(C(F)(F)F)cc2)nc2cc(C(=O)N[C@@H](C)c3cccc(C(=O)O)c3)ccc12 [I-347, (S)-3-(1-(4-methoxy-2-(4-(trifluoromethyl)phenyl)quinoline-7-carboxamido)ethyl)benzoic acid]",5000 to 10000
14,"O=C(O)c1ccc2c(c1)nc(N1CCC3(CCCC3)CC1)c1cccn12 [I-8, 4-(8-Azaspiro[4.5]decan-8-yl)pyrrolo[1,2-a]quinoxaline-7-carboxylic acid]",≤ 1000
15,"O=C(O)c1ccc2c(c1)nc(OCc1cccc(C(F)(F)F)c1)c1cccn12 [I-131, 4-((3-(Trifluoromethyl)benzyl)oxy)pyrrolo[1,2-a]quinoxaline-7-carboxylic acid]",> 10000
16,"CC(C)c1cc(-c2ccc(C(F)(F)F)cc2)nc2cc(C(=O)O)ccc12 [I-425, 4-isopropyl-2-(4-(trifluoromethyl)phenyl)quinoline-7-carboxylic acid]",1000 to 5000
17,"O=C(O)c1ccc2c(c1)nc(Oc1ccc(C(F)(F)F)cc1)c1cccn12 [I-23, 4-(4-(Trifluoromethyl)phenoxy) pyrrolo[1,2-a] quinoxaline-7-carboxylic acid]",≤ 1000

row,SMILES,GI50 [nM]
1,"COC(=O)/C=C/c1cn2ccnc2c(-c2ccc(C(C)(C)C)cc2)n1 [I-151, Methyl (E)-3-(8-(4-(tert-butyl)phenyl)imidazo[1,2-a]pyrazin-6-yl)acrylate]",> 10000
2,"COc1ccc(-c2nc3cc(C(=O)O)ccc3n3cccc23)cc1 [I-46, 4-(4-Methoxyphenyl)pyrrolo[1,2-a]quinoxaline-7-carboxylic acid]",> 10000
3,"C=CC(=O)NCc1nc(-c2ccc(C(F)(F)F)cc2)cc2nccn12 [I-322, N-((7-(4-(Trifluoromethyl)phenyl)imidazo[1,2-c]pyrimidin-5-yl)methyl)acrylamide]",≤ 1000
4,"O=C(O)c1ccc2c(c1)nc(N1CC3C(C1)C3C(F)(F)F)c1cccn12 (centres unmarked) [I-128, 4-(6-(Trifluoromethyl)-3-azabicyclo[3.1.0]hexan-3-yl)pyrrolo[1,2-a]quinoxaline-7-carboxylic acid hydrochloride]",1000 to 5000
5,"C=CC(=O)NCc1cn2ccnc2c(OCc2cccc(C(F)(F)F)c2)n1 [I-294, N-((8-((3-(trifluoromethyl)benzyl)oxy)imidazo[1,2-a]pyrazin-6-yl)methyl) acrylamide]",1000 to 5000
6,"O=C(O)c1ccc2c(c1)nc(-c1c(Cl)cc(C(F)(F)F)cc1Cl)c1cccn12 [I-201, 4-(2,6-Dichloro-4-(trifluoromethyl)phenyl)pyrrolo[1,2-a]quinoxaline-7-carboxylic acid]",5000 to 10000
7,"CC(C)C12CC(Nc3nc4cc(C(=O)O)ccc4n4cccc34)(C1)C2 [I-22, 4-((3-Isopropylbicyclo[1.1.1]pentan-1-yl)amino)pyrrolo[1,2-a]quinoxaline-7-carboxylic acid]",1000 to 5000
8,"CC(C)(C)c1ccc(-c2nc3cc(C(=O)O)ccc3n3ncnc23)cc1 [I-287, 4-(4-(tert-butyl)phenyl)-[1,2,4]triazolo[1,5-a]quinoxaline-7-carboxylic acid]",1000 to 5000
9,"C=CC(=O)Nc1ccc2c(c1)nc(-c1ccc(C(F)(F)F)cn1)c1cccn12 [I-202, N-(4-(5-(trifluoromethyl)pyridin-2-yl)pyrrolo[1,2-a]quinoxalin-7-yl)acrylamide]",≤ 1000
10,"C=CC(=O)NCc1cn2ccnc2c(-c2ccc(C(C)(C)C)cc2)n1 [I-140, N-((8-(4-(tert-butyl)phenyl)imidazo[1,2-a]pyrazin-6-yl)methyl)acrylamide]",≤ 1000
11,"C=CC(=O)Nc1ccc2cnc(-c3ccc(C)cc3)nc2c1 [I-81, N-(2-(p-Tolyl)quinazolin-7-yl)acrylamide]",1000 to 5000
12,"CNC(=O)c1cn2ccnc2c(-c2ccc(C(C)(C)C)cc2)n1 [I-143, 8-(4-(tert-Butyl)phenyl)-N-methylimidazo[1,2-a]pyrazine-6-carboxamide]",> 10000
13,"CC[C@H](CO)NC(=O)c1ccc2nc(C)c(-c3ccc(C(F)(F)F)cc3)nc2c1 [I-423, (R)—N-(1-hydroxybutan-2-yl)-2-methyl-3-(4-(trifluoromethyl)phenyl)quinoxaline-6-carboxamide]",5000 to 10000
14,"COc1cccc([C@H](C)NC(=O)c2ccc3c(C)cc(-c4ccc(C(F)(F)F)cc4)nc3c2)c1 [I-268, (S)—N-(1-(3-methoxyphenyl)ethyl)-4-methyl-2-(4-(trifluoromethyl)phenyl)quinoline-7-carboxamide]",≤ 1000
15,"COCC(C)OC(=O)N1CCc2c(cccc2-c2ccc(C(F)(F)F)cc2)C1 (centres unmarked) [I-79, 1-Methoxypropan-2-yl 5-(4-(trifluoromethyl)phenyl)-3,4-dihydroisoquinoline-2(1H)-carboxylate]",1000 to 5000
16,"C=CC(=O)NC(C)(CO)c1cn2ccnc2c(-c2ccc(C(F)(F)F)cc2)n1 (centres unmarked) [I-251, N-(1-hydroxy-2-(8-(4-(trifluoromethyl)phenyl)imidazo[1,2-a]pyrazin-6-yl)propan-2-yl)acrylamide]",≤ 1000
